“And” between values parts separate entries of the source, which are not always exact repeats. Equal entries are not always repeated. Structures can show the parent of a compound that is named as a salt.
Tests used:
OCT2 [1] = target: T1, OCT2 (Homo sapiens, UniProt O15244); test: OCT2 inhibition, MPP+ uptake in transfected HEK cells; details: no inhibitor
T1 sequence (O15244 1-555): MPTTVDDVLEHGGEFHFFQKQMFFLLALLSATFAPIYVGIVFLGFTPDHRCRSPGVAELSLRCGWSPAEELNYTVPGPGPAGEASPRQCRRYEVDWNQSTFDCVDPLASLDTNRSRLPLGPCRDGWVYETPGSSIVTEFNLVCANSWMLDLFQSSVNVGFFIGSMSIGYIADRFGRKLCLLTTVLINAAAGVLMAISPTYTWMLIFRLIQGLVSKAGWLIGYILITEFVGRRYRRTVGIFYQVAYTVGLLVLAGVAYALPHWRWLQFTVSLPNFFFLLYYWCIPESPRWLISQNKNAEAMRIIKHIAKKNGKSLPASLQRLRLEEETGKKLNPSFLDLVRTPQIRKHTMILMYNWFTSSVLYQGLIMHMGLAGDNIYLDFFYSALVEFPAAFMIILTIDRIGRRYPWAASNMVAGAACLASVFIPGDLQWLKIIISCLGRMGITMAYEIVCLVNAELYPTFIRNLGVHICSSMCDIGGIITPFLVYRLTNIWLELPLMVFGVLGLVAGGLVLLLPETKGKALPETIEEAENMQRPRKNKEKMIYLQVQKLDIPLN

OATP1B1 = OATP1B1 (Homo sapiens, UniProt Q9Y6L6); test: OATP1B1 inhibition, atorvastatin uptake in transfected HEK cells
OATP1B1, sequence (Q9Y6L6 whole entry): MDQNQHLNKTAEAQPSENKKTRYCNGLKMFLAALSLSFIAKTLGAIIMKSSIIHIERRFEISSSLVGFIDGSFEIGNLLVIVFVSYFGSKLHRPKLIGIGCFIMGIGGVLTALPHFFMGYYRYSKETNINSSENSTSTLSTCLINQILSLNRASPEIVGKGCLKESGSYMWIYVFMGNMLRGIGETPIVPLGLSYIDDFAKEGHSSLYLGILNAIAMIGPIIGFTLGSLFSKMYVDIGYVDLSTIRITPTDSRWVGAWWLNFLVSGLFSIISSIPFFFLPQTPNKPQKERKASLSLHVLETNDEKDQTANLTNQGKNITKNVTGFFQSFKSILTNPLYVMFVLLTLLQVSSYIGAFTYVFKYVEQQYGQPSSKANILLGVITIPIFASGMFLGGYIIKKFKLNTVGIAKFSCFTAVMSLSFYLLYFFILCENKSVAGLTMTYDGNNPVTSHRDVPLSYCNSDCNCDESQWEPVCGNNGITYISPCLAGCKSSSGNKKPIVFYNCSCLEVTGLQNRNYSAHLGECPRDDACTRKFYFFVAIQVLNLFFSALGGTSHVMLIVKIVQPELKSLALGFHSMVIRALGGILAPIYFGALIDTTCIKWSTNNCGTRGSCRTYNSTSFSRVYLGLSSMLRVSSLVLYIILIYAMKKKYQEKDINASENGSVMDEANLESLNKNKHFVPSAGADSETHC

OATP1B3 = OATP1B3 (Homo sapiens, UniProt Q9NPD5); test: OATP1B3 inhibition, atorvastatin uptake in transfected HEK cells; details: for Influx Rate of […] Atorvastatin (5 min): OATP1B3-HEK Cells
OATP1B3, sequence (Q9NPD5 whole entry): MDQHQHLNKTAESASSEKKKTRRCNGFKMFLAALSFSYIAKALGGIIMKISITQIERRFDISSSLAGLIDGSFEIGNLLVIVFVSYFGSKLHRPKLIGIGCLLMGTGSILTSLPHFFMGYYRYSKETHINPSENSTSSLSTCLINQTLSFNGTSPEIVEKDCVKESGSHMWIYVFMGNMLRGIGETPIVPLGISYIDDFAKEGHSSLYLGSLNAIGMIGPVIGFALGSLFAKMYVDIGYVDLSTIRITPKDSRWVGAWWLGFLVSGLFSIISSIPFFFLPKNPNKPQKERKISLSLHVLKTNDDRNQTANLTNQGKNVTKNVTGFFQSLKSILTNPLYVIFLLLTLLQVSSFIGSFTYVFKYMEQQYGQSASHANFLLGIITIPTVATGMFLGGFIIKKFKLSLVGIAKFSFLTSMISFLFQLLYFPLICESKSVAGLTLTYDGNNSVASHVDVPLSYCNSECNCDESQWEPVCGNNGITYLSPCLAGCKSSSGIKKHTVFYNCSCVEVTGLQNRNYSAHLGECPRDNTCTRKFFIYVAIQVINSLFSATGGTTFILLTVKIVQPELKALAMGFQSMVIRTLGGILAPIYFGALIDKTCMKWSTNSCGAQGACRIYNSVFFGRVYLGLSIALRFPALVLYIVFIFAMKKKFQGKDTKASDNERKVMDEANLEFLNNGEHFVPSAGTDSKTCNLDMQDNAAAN

[2] = rat, in vivo
[3] = Rat drug-drug interaction study TDF + AMX0035: urine recovery; format: in vivo; details: for Amount Recovered: male Sprague Dawley rats, oral, total urine, 24 hour collection
Description: Total urine recovery data for Tenofovir, TDF, and PB was calculated for the 24 hour collection period on Days 1 and 5. […] The reported urine recovery data included amount recovered (ng) and percent recovered (%) for […]. Individual and mean Tenofovir, TDF, and PB urine recovery data were presented with SD, reported to three significant figures, and CV %, reported to one decimal place.

OCT2 [4] = target: T1, OCT2; test: Substrate of OCT2, uptake in HEK293 cells; details: probe substrate 1 μM
Description: (§1) Vector-transfected HEK cells were used as a control.

MATE2K = MATE2K (Homo sapiens, UniProt Q86VL8); test: MATE2K inhibition, metformin uptake in transfected HEK cells; details: no inhibitor
MATE2K, sequence (Q86VL8 1-566 isoform Q86VL8-3): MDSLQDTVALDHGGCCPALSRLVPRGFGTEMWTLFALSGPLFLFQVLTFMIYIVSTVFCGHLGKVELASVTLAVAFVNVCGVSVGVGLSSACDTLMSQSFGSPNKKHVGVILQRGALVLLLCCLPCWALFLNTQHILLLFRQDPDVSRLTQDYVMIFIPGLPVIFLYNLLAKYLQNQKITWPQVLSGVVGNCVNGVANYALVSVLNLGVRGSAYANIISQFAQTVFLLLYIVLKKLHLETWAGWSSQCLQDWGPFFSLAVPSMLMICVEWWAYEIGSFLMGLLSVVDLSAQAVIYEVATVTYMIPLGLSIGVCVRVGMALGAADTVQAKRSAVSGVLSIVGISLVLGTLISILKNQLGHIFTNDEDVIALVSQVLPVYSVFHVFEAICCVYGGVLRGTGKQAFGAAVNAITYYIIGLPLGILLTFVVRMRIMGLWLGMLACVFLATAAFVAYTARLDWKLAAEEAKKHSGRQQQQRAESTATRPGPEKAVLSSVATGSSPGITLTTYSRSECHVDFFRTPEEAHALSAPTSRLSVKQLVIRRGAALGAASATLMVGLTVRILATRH

MATE1 = target: T2, MATE1 (Homo sapiens, UniProt Q96FL8); test: MATE1 inhibition, metformin uptake in transfected HEK cells; details: no inhibitor
T2 sequence (Q96FL8 1-570): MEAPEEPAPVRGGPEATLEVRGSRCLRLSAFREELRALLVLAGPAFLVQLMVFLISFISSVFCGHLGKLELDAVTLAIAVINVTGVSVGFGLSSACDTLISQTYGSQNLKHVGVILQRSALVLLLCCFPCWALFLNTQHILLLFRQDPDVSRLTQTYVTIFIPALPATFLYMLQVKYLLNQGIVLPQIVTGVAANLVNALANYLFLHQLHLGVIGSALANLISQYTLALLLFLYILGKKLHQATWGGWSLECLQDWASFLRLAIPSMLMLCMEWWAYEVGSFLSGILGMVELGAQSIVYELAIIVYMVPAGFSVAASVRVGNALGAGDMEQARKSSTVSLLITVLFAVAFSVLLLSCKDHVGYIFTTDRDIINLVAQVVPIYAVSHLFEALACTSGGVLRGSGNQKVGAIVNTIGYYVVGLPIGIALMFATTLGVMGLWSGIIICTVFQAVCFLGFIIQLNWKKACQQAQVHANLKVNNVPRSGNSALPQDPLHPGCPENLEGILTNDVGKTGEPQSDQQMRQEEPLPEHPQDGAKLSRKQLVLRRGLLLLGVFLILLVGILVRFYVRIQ

human hepatocytes = test: Cell viability after CYP induction treatment (MTS); details: controls at induction concentrations
Description: Plateable and inducible cryopreserved human hepatocytes were thawed and isolated in human hepatocyte thawing medium. […] After attachment (4 hours), the medium was changed to fresh hepatocyte culture medium for overnight cell recovery. […] A positive control (100 μM chlorpromazine) was treated in parallel.
After the CYP induction treatment, the cells were used for cell viability assay. The viability of cells (expressed as the percentage of MTS absorbance relative to vehicle control) was measured as described herein.

CYP2B6 mRNA = CYP2B6 mRNA induction in human hepatocytes (qPCR); details: phenobarbital 1,000 μM, flumazenil 10 μM
Description: Plateable and inducible cryopreserved human hepatocytes were thawed and isolated in human hepatocyte thawing medium.
All experiments were performed in triplicate.
After induction treatment, CYP mRNA expression was measured by qPCR. Total RNA was isolated from the treated cells using the RNeasy® mini kit (Qiagen, Valencia, CA, USA) and treated with RNase-free DNase (Qiagen) following the manufacturer's protocols. The concentration of RNA was determined using a Qubit® Fluorometer with a Qubit RNA HS assay kit (Invitrogen). cDNA was synthesized from up to […] of the total RNA harvested from the cells using a QuantiTect® RT kit (Qiagen). Analysis of CYP gene expression by qPCR (Table 3) was performed using the LightCycler® 480 II System (Roche Diagnostics Corporation, Indianapolis, IN, USA).
Relative mRNA was expressed as the fold-increase calculated from the normalized mRNA level (2^−ΔΔCt) relative to vehicle control. The percentage of mRNA fold-increase relative to positive control was calculated using the following equation:
% Induction relative to positive control=100×(mRNATA−mRNAvehicle)/(mRNApositive control−mRNAvehicle)

OAT3 = target: T3, OAT3 (Homo sapiens, UniProt Q8TCC7); test: Substrate of OAT3, uptake in HEK293 cells; details: probe substrate 1 μM
T3 sequence (Q8TCC7 1-542): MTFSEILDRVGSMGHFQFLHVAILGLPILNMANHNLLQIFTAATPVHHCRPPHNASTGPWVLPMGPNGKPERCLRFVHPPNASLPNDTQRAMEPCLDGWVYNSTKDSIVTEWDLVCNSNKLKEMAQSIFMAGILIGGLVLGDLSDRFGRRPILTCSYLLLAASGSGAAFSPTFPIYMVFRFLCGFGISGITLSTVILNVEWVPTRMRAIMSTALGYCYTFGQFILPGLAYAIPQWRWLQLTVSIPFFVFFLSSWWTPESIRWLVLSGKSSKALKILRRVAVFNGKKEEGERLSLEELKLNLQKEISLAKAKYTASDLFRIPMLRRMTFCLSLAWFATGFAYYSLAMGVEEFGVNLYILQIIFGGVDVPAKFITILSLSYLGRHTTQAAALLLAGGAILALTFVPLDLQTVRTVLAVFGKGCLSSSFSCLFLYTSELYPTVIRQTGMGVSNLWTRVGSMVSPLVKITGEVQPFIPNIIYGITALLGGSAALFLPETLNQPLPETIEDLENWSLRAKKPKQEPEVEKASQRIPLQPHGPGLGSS
Description: as §1

[5] = Vector Control Cells, replicates

C[n+]1ccc(-c2ccccc2)cc1 [MPP+, 1-methyl-4-phenylpyridinium]
Net Influx Rate of 5 μM MPP+ (OCT2 [1]; OCT2): 847 pmol/mg protein/minute
Influx rate ratio (OCT2 over vector control) (OCT2 [1]): 48.9
Influx Rate of 5 μM MPP+ (2 min) (OCT2 [1]; OCT2-HEK Cells, Average): 864 pmol/mg protein/minute
Influx Rate of 5 μM MPP+ (2 min) (OCT2 [1]; OCT2-HEK Cells, replicates): 896 pmol/mg protein/minute and 833 pmol/mg protein/minute
Influx Rate Ratio of MPP+ (OCT2 [1]; OCT2 over vector control): 48.9
Influx Rate of 5 μM MPP+ (2 min) (OCT2 [1]; Vector Control Cells, Average): 17.7 pmol/mg protein/minute
Influx Rate of 5 μM MPP+ (2 min) (OCT2 [1]; [5]): 19.0 pmol/mg protein/minute and 16.3 pmol/mg protein/minute

CO[C@H]1/C=C/O[C@@]2(C)Oc3c(C)c([O-])c4c(O)c(cc(O)c4c3C2=O)NC(=O)/C(C)=C\C=C\[C@H](C)[C@H](O)[C@@H](C)[C@@H](O)[C@@H](C)[C@H](OC(C)=O)[C@@H]1C.[Na+] [RSV, rifamycin SV]
Influx Rate of […] Atorvastatin (5 min) (OATP1B1; 10 μM RSV, OATP1B1-HEK Cells, Average): 0.702 pmol/mg protein/minute
Influx Rate of […] Atorvastatin (5 min) (OATP1B1; 10 μM RSV, OATP1B1-HEK Cells, replicates): 0.724 pmol/mg protein/minute and 0.681 pmol/mg protein/minute
Influx Rate of […] Atorvastatin (5 min) (OATP1B1; 10 μM RSV, Vector Control Cells, Average): 0.518 pmol/mg protein/minute
Influx Rate of […] Atorvastatin (5 min) (OATP1B1; 10 μM RSV, Vector Control Cells, replicates): 0.496 pmol/mg protein/minute and 0.541 pmol/mg protein/minute
Net Influx Rate of […] Atorvastatin (OATP1B1; OATP1B1, 10 μM RSV): 0.184 pmol/mg protein/minute
Percentage Inhibition (OATP1B1; OATP1B1, 10 μM RSV): 96.7%
% inhibition of atorvastatin uptake (OATP1B1; known inhibitor): 96.7%
Influx Rate of […] Atorvastatin (5 min) (OATP1B3; 10 μM RSV, Average): 0.573 pmol/mg protein/minute
Influx Rate of […] Atorvastatin (5 min) (OATP1B3; 10 μM RSV, replicates): 0.576 pmol/mg protein/minute and 0.571 pmol/mg protein/minute
Net Influx Rate of […] Atorvastatin (OATP1B3; OATP1B3, 10 μM RSV): 0.0551 pmol/mg protein/minute
Percentage Inhibition (OATP1B3; OATP1B3, 10 μM RSV): 98.1%
% inhibition of atorvastatin uptake (OATP1B3; known inhibitor): 98.1%

CC(C)OC(=O)OCOP(=O)(CO[C@H](C)Cn1cnc2c(N)ncnc21)OCOC(=O)OC(C)C [TDF, Tenofovir Disoproxil Fumarate]
Prodrug in plasma [2]: No prodrug (TDF) was detected in plasma
Urine concentrations ([3]; male, Sprague-Dawley, rat, in vivo): Urine concentrations for PB analysis in all animals on Day 1, for TUDCA analysis in all animals on Days 1 and 5, and for TDF analysis in two animals on Day 1 and one animal on Day 5 were BLQ (<20 mg/mL) so no recovery data was calculated.

CN(C)C(N)=NC(=N)N [14C-metformin]
Fold uptake over the vector control by OCT2 (OCT2 [4]): 43.7 fold

CN(C)C(=N)N=C(N)N [metformin]
Net Influx Rate of 50 μM Metformin (MATE2K; MATE2K): 36.1 pmol/mg protein/minute
Influx rate ratio (MATE2K over vector control) (MATE2K): 2.70
Influx Rate of 50 μM Metformin (10 min) (MATE2K; MATE2K HEK Cells, Average): 57.4 pmol/mg protein/minute
Influx Rate of 50 μM Metformin (10 min) (MATE2K; MATE2K HEK Cells, replicates): 54.5 pmol/mg protein/minute and 60.2 pmol/mg protein/minute
Influx Rate Ratio of metformin (MATE2K; MATE2K over vector control): 2.70
Influx Rate of 50 μM Metformin (10 min) (MATE2K; Vector Control Cells, Average): 21.3 pmol/mg protein/minute
Influx Rate of 50 μM Metformin (10 min) (MATE2K; [5]): 19.6 pmol/mg protein/minute and 22.8 pmol/mg protein/minute
Net Influx Rate of 50 μM Metformin (MATE1; MATE1): 572 pmol/mg protein/minute
Influx rate ratio (MATE1 over vector control) (MATE1): 43.4
Influx Rate of 50 μM Metformin (10 min) (MATE1; MATE1-HEK Cells, Average): 586 pmol/mg protein/minute
Influx Rate of 50 μM Metformin (10 min) (MATE1; MATE1-HEK Cells, replicates): 515 pmol/mg protein/minute and 656 pmol/mg protein/minute
Influx Rate Ratio of metformin (MATE1; MATE1 over vector control): 43.4
Influx Rate of 50 μM Metformin (10 min) (MATE1; Vector Control Cells, Average): 13.5 pmol/mg protein/minute
Influx Rate of 50 μM Metformin (10 min) (MATE1; [5]): 15.6 pmol/mg protein/minute and 11.3 pmol/mg protein/minute

CCC1(c2ccccc2)C(=O)NC(=O)NC1=O [Phenobarbital, phenobarbital]
% MTS absorbance relative to vehicle control (human hepatocytes; donor 1): 97.7%
Formazan absorbance, mean (n=6) (human hepatocytes; donor 1): 0.417
% MTS absorbance relative to vehicle control (human hepatocytes; donor 2): 98.8%
Formazan absorbance, mean (n=6) (human hepatocytes; donor 2): 0.504
% MTS absorbance relative to vehicle control (human hepatocytes; donor 3): 108%
Formazan absorbance, mean (n=6) (human hepatocytes; donor 3): 0.320
% induction relative to positive control (CYP2B6 mRNA; donor 1): 100%
CYP2B6 mRNA fold-increase, mean (CYP2B6 mRNA; donor 1): 21.8 fold
% induction relative to positive control (CYP2B6 mRNA; donor 2): 100%
CYP2B6 mRNA fold-increase, mean (CYP2B6 mRNA; donor 2): 39.6 fold
% induction relative to positive control (CYP2B6 mRNA; donor 3): 100%
CYP2B6 mRNA fold-increase, mean (CYP2B6 mRNA; donor 3): 7.36 fold

C[C@H](Cn1cnc2c(N)ncnc21)OCP(=O)(O)O [Tenofovir]
Fold increase of mean AUClast in the presence of AMX0035 [2]: 2.17 fold
Fold increase of mean Cmax in the presence of AMX0035 [2]: 1.24 fold
Individual Tmax [2]: 15 min
Amount Recovered ([3]; Day 1, TDF only 25 mg/kg, individual animals): 77300 ng and 63200 ng and 234000 ng
Amount Recovered ([3]; Day 1, TDF only 25 mg/kg, mean): 125000 ng
Amount Recovered ([3]; Day 5, AMX0035 + TDF 840/25 mg/kg, individual animals): 764000 ng and 296000 ng and 99500 ng
Amount Recovered ([3]; Day 5, AMX0035 + TDF 840/25 mg/kg, mean): 386000 ng

C[C@]12CC[C@@H]3c4ccc(OS(=O)(=O)O)cc4CC[C@H]3[C@@H]1CCC2=O [3H-estrone-3-sulfate]
Fold uptake over the vector control by OAT3 (OAT3): 25.9 fold

— patent US20240139211A1, “METHODS AND COMPOSITIONS FOR TREATING AMYOTROPHIC LATERAL SCLEROSIS” (Amylyx Pharmaceuticals, Inc., priority 2022, published 2024)
